# Reference: US11167040B2, “Conjugates comprising peptide groups and methods related thereto” (priority 2015, dated 2021)
# Square brackets hold non-standard residues; d marks the D form. Peptide text beside a SMILES is read from it. Dolaproine = CO[C@@H]([C@@H]1CCCN1)[C@@H](C)C(=O)O; Dil = CC[C@H](C)[C@H](NC)[C@@H](CC(=O)O)OC; NMeV = CN[C@H](C(=O)O)C(C)C
# Experiments:
# [1] = system: A431 cells, which express high levels of EGFR; experiment: Cytotoxicity of Erbitux based ADCs, SRB; type: cell-based; conditions: 72 hours; read-out: IC50 against A431 cells
# Description: (§1) A431 cells, which express high levels of EGFR, and MCF-7 cells, which express low levels of EGFR, were plated at about 1000 cells per well in a 96-well plate in 100 μL of media. HCC-827 cells, which express an intermediate level of EGFR were plated at about 5000 cells per well in a 96-well plate in 100 μL of media. […] The cells were incubated for 72 hours and then fixed for 1 hour at 4° C. after adding 100 μL of ice-cold 10% trichloroacetic acid to each well.
# [2] = system: HCC-827 cells, which express an intermediate level of EGFR; experiment: Cytotoxicity of Erbitux based ADCs, SRB; type: cell-based; conditions: 72 hours; read-out: IC50 against HCC-827 cells
# Description: as §1
# [3] = system: MCF-7 cells, which express low levels of EGFR; experiment: Cytotoxicity of Erbitux based ADCs, SRB; type: cell-based; conditions: 72 hours; read-out: IC50 against MCF-7 cells
# Description: as §1
# SK-BR3 cells = experiment: Plasma stability of ADCs: human plasma incubation, then SRB cytotoxicity test; type: cell-based; conditions: Table 18; human plasma 0 h; SK-BR3 cells 72 hr; read-out: Plasma stability of Herceptin based ADCs (nM), Plasma incubation time 0 h
# [4] = system: MCF-7 (HER2 negative to normal); experiment: Cytotoxicity of anti-HER2 ADCs, SRB assay; type: cell-based, human; conditions: Table 12, hybrid ADCs
# Description: (§2) Commercially available human breast cancer cell lines MCF-7 (HER2 negative to normal), OE-19 (HER2 positive), NCI-N87 (HER2 positive), SK-OV-3 (HER2 positive), JIMT-1 (HER2 positive), and SK-BR-3 (HER2 positive) were used. The cell lines were cultured according to recommended specifications provided with the commercially available cell lines.
# (§3) Anti-proliferation activities of the antibodies, drugs, and conjugates with regard to the cancer cell lines were measured. The cells were plated in 96-well, tissue culture plates at 1×10^4 cells per well. After 24 hour incubation, the antibodies, drugs, and conjugates were added in various concentrations. The number of viable cells after 72 hours were counted using SRB assay. Absorbance was measured at 540 nm using SpectraMax 190 (Molecular Devices, USA).
# SK-OV-3 (HER2 positive) = experiment: Cytotoxicity of anti-HER2 ADCs, SRB assay; type: cell-based, human; conditions: Table 12, hybrid ADCs
# Description: as §2, §3
# NCI-N87 (HER2 positive) = experiment: Cytotoxicity of anti-HER2 ADCs, SRB assay; type: cell-based, human; conditions: Table 12, hybrid ADCs
# Description: as §2, §3
smiles,measurement,setting,value
"CC[C@H](C)[C@@H]([C@@H](CC(=O)N1CCC[C@H]1[C@H](OC)[C@@H](C)C(=O)N[C@@H](Cc1ccccc1)C(=O)OC)OC)N(C)C(=O)[C@@H](NC(=O)[C@@H](NC)C(C)C)C(C)C [MMAF-OMe, monomethyl auristatin F methyl ester] (H-[NMeV]V[Dil][Dolaproine]F-OMe)",IC50,[1],1.11 nM
same,IC50,[2],1.99 nM
same,IC50,[3],1.81 nM
same,IC50,SK-BR3 cells,0.48 nM
same,IC50,[4],0.6 nM
same,IC50,SK-OV-3 (HER2 positive),0.78 nM
same,IC50,NCI-N87 (HER2 positive),0.49 nM
